Experimental findings from doi:10.1101/423061v1, “Comparative analysis of PknB inhibitors for reactivity and toxicity” (biorxiv, 2018) are described below.

What is called pIC50 is the negative decadic logarithm of the IC50, by convention in mol/L.

For this experiment, the target named is PknB (Mycobacterium tuberculosis, UniProt P9WI81). Put plainly: ATP Glo kinase assay, GarA as protein substrate. It counts as biochemical.

The structures appear in SMILES notation. pIC50: −log10 of the molar value.

PknB, sequence (P9WI81 1-331 limits assumed): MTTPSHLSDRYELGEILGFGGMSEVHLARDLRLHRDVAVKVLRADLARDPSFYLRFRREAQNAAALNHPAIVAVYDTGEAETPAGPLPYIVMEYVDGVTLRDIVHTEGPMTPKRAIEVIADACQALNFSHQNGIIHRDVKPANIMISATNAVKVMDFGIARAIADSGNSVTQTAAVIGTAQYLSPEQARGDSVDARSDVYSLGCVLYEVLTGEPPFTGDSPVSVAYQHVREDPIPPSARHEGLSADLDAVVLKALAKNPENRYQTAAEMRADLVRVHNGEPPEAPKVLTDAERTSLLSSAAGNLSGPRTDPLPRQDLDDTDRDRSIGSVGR

In turn, `COC(=O)/C=C/C(=O)c1ccc(OC)cc1` [YH-8, trans-Methyl-4-(4-methoxyphneyl)-4-oxobut-2-enoate] gave a pIC50 of 5.18.
